Laboratory results as given in PubChem BioAssay (NCI).
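Following 48 hours of exposure in 96-well plates, responses at five concentrations were used to interpolate endpoints linearly. The concentration for 50% growth inhibition is given as GI50. TGI: total growth inhibition.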

How the values were obtained:
Assay in all cases: NCI anticancer screen, dose series, 48 h
786-0 renal = system: 786-0 renal
A498 renal = system: A498 renal
A549 NSCLC = system: A549 NSCLC
ACHN renal = system: ACHN renal
BT-549 breast = system: BT-549 breast
CAKI-1 renal = system: CAKI-1 renal
CCRF-CEM leukemia = system: CCRF-CEM leukemia
DU-145 prostate = system: DU-145 prostate
EKVX NSCLC = system: EKVX NSCLC
HCC-2998 colon = system: HCC-2998 colon
HCT-116 colon = system: HCT-116 colon
HCT-15 colon = system: HCT-15 colon
HL-60(TB) leukemia = system: HL-60(TB) leukemia
HOP-62 NSCLC = system: HOP-62 NSCLC
HS 578T breast = system: HS 578T breast
HT29 colon = system: HT29 colon
IGROV1 ovarian = system: IGROV1 ovarian
K-562 leukemia = system: K-562 leukemia
KM12 colon = system: KM12 colon
M14 melanoma = system: M14 melanoma
MALME-3M melanoma = system: MALME-3M melanoma
MCF7 breast = system: MCF7 breast
MDA-MB-231 breast = system: MDA-MB-231 breast
MDA-MB-435 = system: MDA-MB-435
MOLT-4 leukemia = system: MOLT-4 leukemia
NCI-H226 lung = system: NCI-H226 lung
NCI-H23 lung = system: NCI-H23 lung
NCI-H460 lung = system: NCI-H460 lung
NCI-H522 lung = system: NCI-H522 lung
NCI/ADR-RES ovarian = system: NCI/ADR-RES ovarian
OVCAR-8 ovarian = system: OVCAR-8 ovarian
PC-3 prostate = system: PC-3 prostate
RPMI-8226 leukemia = system: RPMI-8226 leukemia
RXF 393 renal = system: RXF 393 renal
SF-268 CNS = system: SF-268 CNS
SF-295 CNS = system: SF-295 CNS
SF-539 CNS = system: SF-539 CNS
SK-MEL-2 melanoma = system: SK-MEL-2 melanoma
SK-MEL-28 melanoma = system: SK-MEL-28 melanoma
SK-MEL-5 melanoma = system: SK-MEL-5 melanoma
SK-OV-3 ovarian = system: SK-OV-3 ovarian
SN12C renal = system: SN12C renal
SNB-19 CNS = system: SNB-19 CNS
SNB-75 CNS = system: SNB-75 CNS
SR leukemia = system: SR leukemia
SW-620 colon = system: SW-620 colon
T-47D breast = system: T-47D breast
TK-10 renal = system: TK-10 renal
U251 CNS = system: U251 CNS
UACC-257 melanoma = system: UACC-257 melanoma
UACC-62 melanoma = system: UACC-62 melanoma
UO-31 renal = system: UO-31 renal

NC(=O)c1c(NC(=O)c2ccccc2C(F)(F)F)sc2c1CCC(=O)C2
GI50 (786-0 renal): 4.29 µM
TGI (786-0 renal): > 100 µM
GI50 (A498 renal): 9.93 µM
TGI (A498 renal): 40.3 µM
GI50 (A549 NSCLC): 3.72 µM
TGI (A549 NSCLC): > 100 µM
GI50 (ACHN renal): 1.01 µM
TGI (ACHN renal): 2.66 µM
GI50 (BT-549 breast): 0.947 µM
TGI (BT-549 breast): 76.5 µM
GI50 (CAKI-1 renal): 1.39 µM
TGI (CAKI-1 renal): 3.05 µM
GI50 (CCRF-CEM leukemia): 0.429 µM
TGI (CCRF-CEM leukemia): > 100 µM
GI50 (DU-145 prostate): 4.54 µM
TGI (DU-145 prostate): > 100 µM
GI50 (EKVX NSCLC): 2.81 µM
TGI (EKVX NSCLC): 12.1 µM
GI50 (HCC-2998 colon): 2.88 µM
TGI (HCC-2998 colon): 12.3 µM
GI50 (HCT-116 colon): 0.493 µM
TGI (HCT-116 colon): 8.14 µM
GI50 (HCT-15 colon): 0.493 µM
TGI (HCT-15 colon): 2.07 µM
GI50 (HL-60(TB) leukemia): 1.1 µM
TGI (HL-60(TB) leukemia): 7.37 µM
GI50 (HOP-62 NSCLC): 3.97 µM
TGI (HOP-62 NSCLC): > 100 µM
GI50 (HS 578T breast): 3.04 µM
TGI (HS 578T breast): > 100 µM
GI50 (HT29 colon): 1.97 µM
TGI (HT29 colon): 6.65 µM
GI50 (IGROV1 ovarian): 2.46 µM
TGI (IGROV1 ovarian): 9.48 µM
GI50 (K-562 leukemia): 0.412 µM
TGI (K-562 leukemia): > 100 µM
GI50 (KM12 colon): 3.66 µM
TGI (KM12 colon): 14.6 µM
GI50 (M14 melanoma): 2.76 µM
TGI (M14 melanoma): 19.9 µM
GI50 (MALME-3M melanoma): 2 µM
TGI (MALME-3M melanoma): 5.25 µM
GI50 (MCF7 breast): 2.24 µM
TGI (MCF7 breast): 9.87 µM
GI50 (MDA-MB-231 breast): 1.95 µM
TGI (MDA-MB-231 breast): 4.3 µM
GI50 (MDA-MB-435): 2.94 µM
TGI (MDA-MB-435): 8.7 µM
GI50 (MOLT-4 leukemia): 2.02 µM
TGI (MOLT-4 leukemia): 22.3 µM
GI50 (NCI-H226 lung): 1.97 µM
TGI (NCI-H226 lung): 4.53 µM
GI50 (NCI-H23 lung): 1.34 µM
TGI (NCI-H23 lung): 5.63 µM
GI50 (NCI-H460 lung): 3.52 µM
TGI (NCI-H460 lung): 16 µM
GI50 (NCI-H522 lung): 0.391 µM
TGI (NCI-H522 lung): 1.92 µM
GI50 (NCI/ADR-RES ovarian): 2.33 µM
TGI (NCI/ADR-RES ovarian): 18.3 µM
GI50 (OVCAR-8 ovarian): 2.6 µM
TGI (OVCAR-8 ovarian): > 100 µM
GI50 (PC-3 prostate): 0.307 µM
TGI (PC-3 prostate): 4.43 µM
GI50 (RPMI-8226 leukemia): 0.36 µM
TGI (RPMI-8226 leukemia): > 100 µM
GI50 (RXF 393 renal): 1.37 µM
TGI (RXF 393 renal): 3.83 µM
GI50 (SF-268 CNS): 3.6 µM
TGI (SF-268 CNS): > 100 µM
GI50 (SF-295 CNS): 2.55 µM
TGI (SF-295 CNS): 7.71 µM
GI50 (SF-539 CNS): 0.605 µM
TGI (SF-539 CNS): 2.09 µM
GI50 (SK-MEL-2 melanoma): 2.5 µM
TGI (SK-MEL-2 melanoma): 6.84 µM
GI50 (SK-MEL-28 melanoma): 1.89 µM
TGI (SK-MEL-28 melanoma): 5.5 µM
GI50 (SK-MEL-5 melanoma): 1.78 µM
TGI (SK-MEL-5 melanoma): 3.45 µM
GI50 (SK-OV-3 ovarian): 3.47 µM
TGI (SK-OV-3 ovarian): > 100 µM
GI50 (SN12C renal): 2.59 µM
TGI (SN12C renal): 12.6 µM
GI50 (SNB-19 CNS): 3.74 µM
TGI (SNB-19 CNS): > 100 µM
GI50 (SNB-75 CNS): 1.95 µM
TGI (SNB-75 CNS): 8.2 µM
GI50 (SR leukemia): 0.466 µM
TGI (SR leukemia): > 100 µM
GI50 (SW-620 colon): 0.402 µM
TGI (SW-620 colon): 13.8 µM
GI50 (T-47D breast): 0.492 µM
TGI (T-47D breast): 5.71 µM
GI50 (TK-10 renal): 3.2 µM
TGI (TK-10 renal): > 100 µM
GI50 (U251 CNS): 0.99 µM
TGI (U251 CNS): 19.1 µM
GI50 (UACC-257 melanoma): 2.48 µM
TGI (UACC-257 melanoma): 7.38 µM
GI50 (UACC-62 melanoma): 1.29 µM
TGI (UACC-62 melanoma): 3.19 µM
GI50 (UO-31 renal): 1.12 µM
TGI (UO-31 renal): 2.33 µM
